Results reported in patent US9370606B2, “Scaffold-free self-organized 3D synthetic tissue” (Two Cells, Co., Ltd., priority 2003, dated 2016).

How the values were obtained:
monolayer culture cells = test: Conditions for detachment during production of a synthetic tissue; type: cell-based
Method: In this example, it was determined whether or not chemical detachment can be used instead of physical detachment (mechanical detachment (e.g., pipetting, etc.)) during the production of the synthetic tissue of the present invention.
Cell density: 4×10^4 cells/cm^2
Conditions: CO2 5%, air 95%, 37° C.
Medium: DMEM/F12 (FBS 10%) supplemented with 10 ng/ml TGFβ1.
This medium was used to conduct culture under the conditions described in Examples 14 and 15 to produce a synthetic tissue.
Medium: DMEM (GIBCO), FBS (HyClone) 10%, ITS+Premix (insulin, transferrin, selenious acid) (BD Biosciences) 6.25 μg/ml, dexamethasone (Sigma) 10^−7 M, ascorbic acid (WAKO) 50 μg/ml, pyrubic acid (SIGMA) 100 μg/ml.

[1] = test system: synovium-derived synthetic tissue; test: Influence of actin regulatory agents on contraction of a synthetic tissue; type: cell-based; details: dihydrocytochalasin B 3 μM, Y27632 10 μM; after detachment
Method: Dihydrocytochalasin B and Y27632 (Yamanouchi Pharmaceutical), which are known to have an actin depolymerizing function, were used to study their influence on the contraction of a synthetic tissue.
A synovium-derived synthetic tissue was produced by monolayer culture. The tissue was detached from a culture dish. The tissue was cultured in medium in the presence of dihydrocytochalasin B (3 μM) and Y27632 (10 μM). The transition of the radius of the tissue is shown every unit culture time in FIG. 40. […] Dihydrocytochalasin B and Y27632 are representative exemplary actin polymerization inhibitors. It will be understood by those skilled in the art that other actin polymerization inhibitors, such as cytochalasin D and the like, have a similar function.

[2] = test system: synovial membrane-derived synthetic tissue; test: Collagen content measurement (hydroxyproline) of synovial membrane-derived synthetic tissue; type: cell-based, pig
Method: In order to determine the collagen concentration, the collagen content was measured. […] The amount of produced collagen is substantially proportional to the time period of culture (FIG. 8). Next, it was determined whether or not collagen (extracellular matrix) is sufficiently secreted after implantation of a synthetic tissue of the present invention. The following protocol was used. Culture periods: 3 days, 7 days, 14 days, and 21 days, Concentrations of ascorbic acid 2-phosphate: 0 mM, 0.1 mM, 1 mM, and 5 mM Under the above-described conditions, a synovial membrane-derived synthetic tissue was produced. 6 N HCl was added to culture medium for the synthetic tissue, followed by hydrolysis at 105° C. for 18 hours. The medium was oxidized with chloramine T. Thereafter, the synthetic tissue was subjected to color development using Ehrlich's Reagent Solution (2 g of p-dimethylamino-benzaldehyde+3 ml of 60% perchloric acid; isopropanol was diluted at 3:13), followed by measurement of absorbance.

synovial cells = test: HE staining of synthetic tissue produced from synovial cells; type: cell-based, pig
Method: Synovial cells were collected from a knee joint of a pig (LWD ternary hybrid, 2-3 months old upon removal of cells), followed by treatment with collagenase. The cells were cultured and subcultured in 10% FBS-DMEM medium (FBS was obtained from HyClone, DMEM was obtained from GIBCO). It has been reported that 10th passage synovial cells still have pluripotency. Although cells of 10 or less passages were used in this example, cells of more than 10 passages may be used depending on the application. Autotransplantation was performed for humans, where a sufficient number of cells were used and the cells were cultured for a short period of time so as to reduce the risk of infection or the like. Synovial cells (4.0×10^6) were cultured in 2 ml of 10% FBS-DMEM medium in a 35-mm dish, a 60-mm dish, or 100-mm dish (BD Biosciences, culture dish and multiwell cell culture plate). In this case, ascorbic acid was added. The dishes, the ascorbic acid concentrations, and the cell concentration are described below. Ascorbic acid 2-phosphate: 0 mM, 0.1 mM, 0.5 mM; 1 mM, 2 mM, and 5 mM Medium was exchanged two times per week until the end of a predetermined culture period. At the end of the culture period, a cell sheet was detached from the dish by pipetting circumferentially around the dish using a 100-μl pipetteman. After detachment, the cell sheet was made as flat as possible by lightly shaking the dish. […]

## TGF-β: transforming growth factor, 10 ng/ml TGFβ1 in medium
Monolayer culture cells; 10 ng/ml TGFβ1 in DMEM/F12 (FBS 10%)
  detachment of monolayer culture cells from the culture dish: more easily detached
Monolayer culture cells; added in monolayer culture, no physical stimulus
  effect on culture cells: has the effect of detaching culture cells

## C=C1[C@@H](C)[C@H]2[C@H](Cc3ccccc3)NC(=O)[C@]23OC(=O)CC[C@H](O)CCC[C@@H](C)C/C=C/[C@H]3[C@@H]1O [dihydrocytochalasin B, Dihydrocytochalasin B]
[1]
  contraction of the synthetic tissue (radius over culture time): inhibited

## O=C1O[C@H]([C@@H](O)CO)C(O)=C1OP(=O)(O)O [ascorbic acid 2-phosphate]
[2]; 0, 0.1, 1 and 5 mM, culture 3 to 21 days
  quantities of collagen produced, dependence on concentration: 0 mM<<5 mM<1 mM≦0.1 mM
[2]; 0.1 mM or more added
  production of collagen (amount of hydroxyproline): significantly promoted
[2]; 0.1 mM or more added, any of the culture periods
  collagene content in the synthetic tissue: significantly increased
Synovial cells; 0.1 mM or more
  formation of an extracellular matrix: promoted
Synovial cells; concentration of more than 0.1 mM
  Eosin staining of the synthetic tissue: more intense

## C[C@@H](N)[C@H]1CC[C@H](C(=O)Nc2ccncc2)CC1 [Y27632]
[1]
  contraction of the synthetic tissue (radius over culture time): inhibited
